Experimental data: EP0097567B1, “Use of polyethoxylated alkyl phenols as antiseborrheic agents” (SANOFI S.A., priority 1982, dated 1984)

What was measured:
[1] = tested on: lipogénèse sébacée; experiment: Activity on sebaceous lipogenesis in vitro (incorporation of 14C-glucose into lipids of rat ear skin slices); format: cell-based, rats mâles Sprague Dawley; settings: 4 h, pure products, read-out: Synthèse des lipides à partir de glucose (U-1^14C)Δ % témoin; for inhibition at 0.0005 %: concentration 0,0005 %; for inhibition at 0.001 %: concentration 0,001 %; for inhibition at 0.0025 %: concentration 0,0025 %; for inhibition at 0.005 %: concentration 0,005 %; for inhibition at 0.01 %: concentration 0,01 %
Excerpt: Après sacrifice au chloroforme de rats mâles Sprague Dawley, d'un poids moyen de 210 g, les oreilles sont découpées aux ciseaux suivant des repères anatomiques fixes, puis leur côté ventral est soigneusement rasé. Après fixation à l'aide de rubans adhésifs sur une plaque de verre, le côté ventral de l'oreille est prélivé à l'aide d'un kératotome de Castroviejo dont l'épaisseur de coupe est réglée sur 3 mm. Ce prélèvement est ensuite coupé en petits carrés de 1 mm^2 avec une lame de rasoir et pesé avant introduction dans le tube servant à l'incubation.
L'incubation se fait dans 1,5 ml de Krebs-Ringer tamponné à pH 7,4 (tampon phosphate Sôrensen 1/15 M) et contenant 100 U/ml de pénicilline, 1 mg/ml de Streptomycine et 2 mmol de glucose non radioactif. Le produit, à la concentration à étudier, est préalablement dissous dans du propylèneglycol (concentration finale égale à 0,5%), puis introduit dans le milieu d'incubation. Les tubes servant à l'incubation sont maintenus dans un bain de glace, jusqu'à ce que tous les prélèvements soient effectués, puis 7,4kBq de glucose U_^14C (74-148 MBq/mmol) sont ajoutés dans chaque tube.
Pour chaque rat utilisé, une des oreilles sert à tester le produit antiséborrhéique potentiel, alors que l'autre sert de témoin.
Après 4 heures d'incubation à 37°C, le milieu d'incubation est éliminé, puis l'incubat subit 4 lavages de 3 mins avec agitation à l'aide de glucose non radioactif (2 g/I). Une fois la dernière eau de lavage éliminée, 3 ml de potasse alcoolique N sont rajoutés dans chaque tube contenant les glandes sébacées de la peau d'oreille. Les tubes sont bouchés et portés à 70°C pendant une nuit.
Après ce temps, les tubes sont refroidis et 3 ml d'acide chlorhydrique 2N sont introduits dans chaque tube. Les lipides présents correspondant aux glandes sébacées de chaque oreille sont alors extraits par 2 fois 4 ml d'hexane après agitation de 5 min. Après séparation des phases aqueuse et hexanique, 3,25 ml d'hexane à la première extraction et 4 ml à la deuxième sont prélevés et réunis dans une fiole de comptage contenant 10 ml de liquide de mélange scintillant.
Les fioles, après bouchage et- agitation, sont introduites dans un compteur à scintillation liquide préréglé sur le canal ^14C. Le temps de comptage de chaque fiole est de 4 min. Pour chaque fiole, le résultat exprimé en coups/minute (cpm) est transformé en fonction du poids de prélèvement en cpm/mg et l'inhibition (ou l'augmentation) de la synthèse des lipides est donnée par la variation % (A%) de l'incorporation en cpm/mg entre l'oreille témoin et l'oreille "traitée".
La moyenne des A% est effectuée et la valeur statistique des résultats est déterminée par le calcul du coefficient "t" de Student.

[2] = tested on: organes du flanc; experiment: Local antiseborrheic activity (testosterone propionate-stimulated hamster flank organ, lipogenesis from 14C-glucose); format: in vivo, hamsters femelles Syrien doré; settings: topical, dose de 2000 µg par jour
Protocol: Des hamsters femelles Syrien doré, d'un poids moyen de 110 g, sont tondus et rasés au niveau des organes du flanc qui se présentent sous l'aspect d'une tache sombre de 2 mm de diamètre environ, de part et d'autre de la colonne vertébrale. Sur un des organes, 1,25 µg de testostérone propionate est appliqué journellement sous un volume de 10 µl d'acétone, l'autre organe recevent la même quantité de testostérone associée au produit à étudier. Le traitement s'effectue 5 jours/7 jours pendant 21 jours.
A la fin de cette période, les animaux sont sacrifiés au chloroforme et les diamètres des taches pigmentées sont measurés à l'aide d'une régie graduée. La peau est prélevée, fixée côte épiderme vers le bas, sur une planche en bois. Le muscle peaucier et le tissu adipeux sont alors éliminés par rabotage au Kératotome de Castroviejo (épaisseur de coupe réglée à 3 mm), puis une biopsie de 10 mm de diamètre au niveau de chaque organe est réalisée à l'aide d'un trépan. Cette biopsie est débitée en carrés de 1 mm^2, puis pesée (±0,1 mg).
Le reste de manipulation: incubation, saponification, extraction, est identique à celui effectué dans le test de lipogénèse in vitro ci-dessus.

Compound	inhibition at 0.0005 % [1] [%]	inhibition at 0.001 % [1] [%]	inhibition at 0.0025 % [1] [%]	inhibition at 0.005 % [1] [%]	inhibition at 0.00025 % ([1]; concentration 0,00025 %) [%]	inhibition at 0.025 % ([1]; concentration 0,025 %) [%]	inhibition de la lipogenèse sébacée par rapport au témoin [2] [%]	inhibition at 0.01 % [1] [%]
CC(C)(C)CC(C)(C)c1ccc(OCCOCCOCCOCCOCCOCCOCCOCCOCCOCCOCCOCCO)cc1 [40 182]	19	41	69	89				
CCCCCCCCCc1ccc(OCCOCCOCCOCCOCCOCCOCCOCCOCCOCCOCCOCCO)cc1 [compound 7886]	33	51		84	6	71	100	
CCCCCCCCCc1ccc(OCCOCCOCCOCCOCCOCCOCCOCCOCCO)cc1 [compound 7948]		10	31	61				81
CCCCCCCCCc1ccc(OCCOCCOCCOCCOCCOCCO)cc1 [40 124, nonyl-4 phénoxy-17 pentaoxa-3,6,9,12,15 heptadécanol-1]		6	31	42				55
CC(C)(C)CC(C)(C)c1ccc(OCCOCCOCCOCCOCCOCCO)cc1 [40 181]		4	5	42				67
